What was measured:
oilseed rape [1] = experiment: Test C preemergence; format: in vivo, Brassica napus
Method in brief: (§1)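 Seeds sown in loam–sand blend and treated preemergence with test chemicals in non-phytotoxic solvent with surfactant; postemergence plants in peat-based medium, treated at 2–18 cm (1- to 4-leaf stage). Greenhouse 13 to 15 days, then visual rating versus controls, 0 (no effect) to 100 (complete control).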

kochia = experiment: Test C postemergence; format: in vivo, Kochia scoparia; conditions: for Plant response rating (scale of 0 to 100 where 0 is no effect and 100 is complete control), Kochia: Postemergence, 31 g ai/ha, visually evaluated after 13 to 15 days; for Kochia plant response rating / Plant response rating, Kochia: postemergence; for Kochia plant response rating: 62 g ai/ha, scale 0 to 100
Method in brief: as §1

pigweed [2] = experiment: Test A preemergence; format: in vivo, Amaranthus retroflexus; conditions: preemergence
Method in brief: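 After sowing in a sand–loam mix, pots received compound preemergence by directed soil spray, or postemergence once plants reached the one- to two-leaf stage (2–10 cm). Formulation contained surfactant in a non-phytotoxic solvent. Injury was scored visually after ~10 greenhouse days, 0–100 scale.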

soybean = experiment: Test C postemergence; format: in vivo, Glycine max; conditions: for Soybean plant response rating / Plant response rating, Soybean: postemergence
Method in brief: as §1

pigweed [3] = experiment: Test C preemergence; format: in vivo, Amaranthus retroflexus
Method in brief: as §1

nutsedge, yellow = experiment: Test C postemergence; format: in vivo, Cyperus esculentus; conditions: for Plant response rating (scale of 0 to 100 where 0 is no effect and 100 is complete control), Nutsedge, Yellow: Postemergence, 31 g ai/ha, visually evaluated after 13 to 15 days; for Nutsedge, Yellow plant response rating / Plant response rating, Nutsedge, Yellow: postemergence; for Nutsedge, Yellow plant response rating: 62 g ai/ha, scale 0 to 100
Method in brief: as §1

oat, wild = experiment: Test C postemergence; format: in vivo, Avena fatua; conditions: for Plant response rating (scale of 0 to 100 where 0 is no effect and 100 is complete control), Oat, Wild: Postemergence, 31 g ai/ha, visually evaluated after 13 to 15 days; for Oat, Wild plant response rating / Plant response rating, Oat, Wild: postemergence; for Oat, Wild plant response rating: 62 g ai/ha, scale 0 to 100
Method in brief: as §1

barnyardgrass = experiment: Test B flood; format: in vivo, Echinochloa crus-galli; conditions: 250 g ai/ha, visual rating on 0 to 100 scale (0 no effect, 100 complete control), 13 to 15 days
Method in brief: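 Flooded-pot test: compound dosed into 3 cm of standing water above soil when plants had two leaves. Visual control ratings (0–100) versus untreated plants after 13–15 d.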

ragweed [4] = experiment: Test C preemergence; format: in vivo, Ambrosia elation
Method in brief: as §1

oilseed rape [5] = experiment: Test C postemergence; format: in vivo, Brassica napus; conditions: for Oilseed Rape plant response rating / Plant response rating, Oilseed Rape: postemergence; for Oilseed Rape plant response rating: 62 g ai/ha, scale 0 to 100
Method in brief: as §1

foxtail, giant = experiment: Test C preemergence; format: in vivo, Setaria faberii
Method in brief: as §1

ragweed [6] = experiment: Test C postemergence; format: in vivo, Ambrosia elation
Method in brief: as §1

[7] = preemergence, 31 g ai/ha, visual rating, scale 0 to 100 (0 no effect, 100 complete control), 13 to 15 days
[8] = preemergence, 62 g ai/ha, scale 0 to 100 (0 no effect, 100 complete control), 13 to 15 days
[9] = preemergence, 125 g ai/ha, scale 0 to 100, 0 is no effect, 100 is complete control
[10] = 250 g ai/ha, scale 0 to 100 (0 no effect, 100 complete control)
[11] = 125 g ai/ha, scale 0 to 100, 0 no effect, 100 complete control
[12] = 500 g ai/ha, visual injury after approx. 10 days, 0 to 100 scale (0 no effect, 100 complete control)
[13] = Postemergence, 31 g ai/ha, visually evaluated after 13 to 15 days
[14] = postemergence, 250 g ai/ha, scale 0 to 100 (0 no effect, 100 complete control)
[15] = postemergence, 125 g ai/ha, scale 0 to 100, 0 no effect, 100 complete control
[16] = preemergence, 125 g ai/ha, 13 to 15 days, scale 0 to 100, 0 = no effect, 100 = complete control
[17] = preemergence, 250 g ai/ha, scale 0 to 100, 0 is no effect, 100 is complete control

CCc1cc(C(=O)NCC(F)(F)F)nn1Cc1cc(C(F)(F)F)nn1C [Compound 108, 5-ethyl-1-[[1-methyl-3-(trifluoromethyl)-1H-pyrazole-5-yl]methyl]-N-(2,2,2-trifluoroethyl)-1H-pyrazole-3-carboxamide]
Plant response rating (scale of 0 to 100), Oilseed Rape (oilseed rape [1]; Preemergence, 250 g ai/ha): 100 | Oilseed Rape plant response rating (oilseed rape [1]; [7]): 90 | Oilseed Rape plant response rating (oilseed rape [1]; [8]): 98 | Oilseed Rape plant response rating (oilseed rape [1]; [9]): 100 | Plant response rating (scale of 0 to 100 where 0 is no effect and 100 is complete control), Kochia (kochia): 40 | Kochia plant response rating (kochia): 60 | Plant response rating, Kochia (kochia; [10]): 90 | Plant response rating, Kochia (kochia; [11]): 80 | Pigweed plant response rating (pigweed [2]; 125 g ai/ha, visual injury, 0 to 100 scale, approx. 10 days): 100 | Pigweed plant response rating (pigweed [2]; [12]): 100 | Plant response rating (scale of 0 to 100 where 0 is no effect and 100 is complete control), Soybean (soybean; [13]): 30 | Soybean plant response rating (soybean; 62 g ai/ha, scale 0 to 100): 90 | Plant response rating, Soybean (soybean; [10]): 98 | Plant response rating, Soybean (soybean; [11]): 90 | Plant response rating (scale of 0 to 100), Pigweed (pigweed [3]; Preemergence, 250 g ai/ha): 100 | Pigweed plant response rating (pigweed [3]; [7]): 100 | Pigweed plant response rating (pigweed [3]; [8]): 100 | Pigweed plant response rating (pigweed [3]; [9]): 100 | Plant response rating (scale of 0 to 100 where 0 is no effect and 100 is complete control), Nutsedge, Yellow (nutsedge, yellow): 0 | Nutsedge, Yellow plant response rating (nutsedge, yellow): 0 | Plant response rating, Nutsedge, Yellow (nutsedge, yellow; [10]): 25 | Plant response rating, Nutsedge, Yellow (nutsedge, yellow; [11]): 0 | Plant response rating (scale of 0 to 100 where 0 is no effect and 100 is complete control), Oat, Wild (oat, wild): 10 | Oat, Wild plant response rating (oat, wild): 10 | Plant response rating, Oat, Wild (oat, wild; [10]): 20 | Plant response rating, Oat, Wild (oat, wild; [11]): 15 | Plant response rating, Barnyardgrass (barnyardgrass): 40 | Plant response rating (scale of 0 to 100), Ragweed (ragweed [4]; Preemergence, 250 g ai/ha): 100 | Ragweed plant response rating (ragweed [4]; [7]): 95 | Ragweed plant response rating (ragweed [4]; [8]): 95 | Ragweed plant response rating (ragweed [4]; [9]): 95 | Plant response rating (scale of 0 to 100 where 0 is no effect and 100 is complete control), Oilseed Rape (oilseed rape [5]; [13]): 50 | Oilseed Rape plant response rating (oilseed rape [5]): 50 | Plant response rating, Oilseed Rape (oilseed rape [5]; [10]): 55 | Plant response rating, Oilseed Rape (oilseed rape [5]; [11]): 55 | Plant response rating (scale of 0 to 100), Foxtail, Giant (foxtail, giant; Preemergence, 250 g ai/ha): 100 | Foxtail, Giant plant response rating (foxtail, giant; [7]): 100 | Foxtail, Giant plant response rating (foxtail, giant; [8]): 100 | Foxtail, Giant plant response rating (foxtail, giant; [9]): 100 | Plant response rating (scale of 0 to 100 where 0 is no effect and 100 is complete control), Ragweed (ragweed [6]; [13]): 10 | Ragweed plant response rating (ragweed [6]; postemergence, 62 g ai/ha, scale 0 to 100): 50 | Plant response rating, Ragweed (ragweed [6]; [14]): 85 | Plant response rating, Ragweed (ragweed [6]; [15]): 50

CCCc1cc(C(=O)NC(C)C)nn1Cc1cc(C(F)(F)F)nn1C [Compound 201]
Oilseed Rape plant response rating (oilseed rape [1]; [7]): 100 | Oilseed Rape plant response rating (oilseed rape [1]; [8]): 100 | Plant response rating, Oilseed Rape (oilseed rape [1]; [16]): 100 | Oilseed Rape plant response rating (oilseed rape [1]; [17]): 95 | Plant response rating (scale of 0 to 100 where 0 is no effect and 100 is complete control), Kochia (kochia): 85 | Kochia plant response rating (kochia): 85 | Plant response rating, Kochia (kochia; [10]): 90 | Plant response rating, Kochia (kochia; [11]): 90 | Pigweed plant response rating (0 to 100 scale) (pigweed [2]; 125 g ai/ha, visual injury approx. 10 days after treatment): 100 | Pigweed plant response rating (pigweed [2]; [12]): 100 | Plant response rating, Soybean (soybean; [10]): 98 | Soybean plant response rating (soybean; [11]): 95 | Pigweed plant response rating (pigweed [3]; [7]): 100 | Pigweed plant response rating (pigweed [3]; [8]): 100 | Plant response rating, Pigweed (pigweed [3]; [16]): 98 | Pigweed plant response rating (pigweed [3]; [17]): 98 | Plant response rating (scale of 0 to 100 where 0 is no effect and 100 is complete control), Nutsedge, Yellow (nutsedge, yellow): 10 | Nutsedge, Yellow plant response rating (nutsedge, yellow): 10 | Plant response rating, Nutsedge, Yellow (nutsedge, yellow; [10]): 10 | Plant response rating, Nutsedge, Yellow (nutsedge, yellow; [11]): 5 | Plant response rating (scale of 0 to 100 where 0 is no effect and 100 is complete control), Oat, Wild (oat, wild): 5 | Oat, Wild plant response rating (oat, wild): 10 | Plant response rating, Oat, Wild (oat, wild; [10]): 40 | Plant response rating, Oat, Wild (oat, wild; [11]): 25 | Plant response rating, Barnyardgrass (barnyardgrass): 70 | Ragweed plant response rating (ragweed [4]; [7]): 80 | Ragweed plant response rating (ragweed [4]; [8]): 85 | Plant response rating, Ragweed (ragweed [4]; [16]): 95 | Ragweed plant response rating (ragweed [4]; [17]): 98 | Oilseed Rape plant response rating (oilseed rape [5]): 60 | Plant response rating, Oilseed Rape (oilseed rape [5]; [10]): 80 | Plant response rating, Oilseed Rape (oilseed rape [5]; [11]): 50 | Foxtail, Giant plant response rating (foxtail, giant; [7]): 100 | Foxtail, Giant plant response rating (foxtail, giant; [8]): 95 | Plant response rating, Foxtail, Giant (foxtail, giant; [16]): 100 | Foxtail, Giant plant response rating (foxtail, giant; [17]): 100 | Plant response rating, Ragweed (ragweed [6]; [14]): 85 | Plant response rating, Ragweed (ragweed [6]; [15]): 60
